Measured values: ChEMBL document CHEMBL1201862, “PubChem BioAssay data set” (2004)
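Each compound was tested at five concentrations against cells in 96-well plates for 48 hours. Abbreviation: GI50, concentration required for 50% inhibition of growth.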 Active and inactive are the calls of the source. Rule as the data show it: active = GI50 up to about 1.1 µM and inactive = higher.

Key:
Test in all cases: inhibition of tumour cell growth, NCI panel, 48 h
SF-268 = test system: SF-268
A549 = test system: A549
Hs-578T = test system: Hs-578T
KM12 = test system: KM12
COLO 205 = test system: COLO 205
NCI/ADR-RES = test system: NCI/ADR-RES
SK-MEL-2 = test system: SK-MEL-2
CAKI-1 = test system: CAKI-1
SNB-19 = test system: SNB-19
CCRF-CEM = test system: CCRF-CEM
K562 = test system: K562
SK-MEL-28 = test system: SK-MEL-28
EKVX = test system: EKVX
Malme-3M = test system: Malme-3M
HCT-15 = test system: HCT-15
MDA-N = test system: MDA-N
IGROV-1 = test system: IGROV-1
SW-620 = test system: SW-620
DU-145 = test system: DU-145
UACC-62 = test system: UACC-62
HT-29 = test system: HT-29
MOLT-4 = test system: MOLT-4
OVCAR-4 = test system: OVCAR-4
SR = test system: SR
HCC 2998 = test system: HCC 2998
PC-3 = test system: PC-3
RXF 393 = test system: RXF 393
HL-60 = test system: HL-60
TK-10 = test system: TK-10
786-0 = test system: 786-0
ACHN = test system: ACHN
MDA-MB-435 = test system: MDA-MB-435
HCT-116 = test system: HCT-116
LOX IMVI = test system: LOX IMVI
SK-OV-3 = test system: SK-OV-3
OVCAR-5 = test system: OVCAR-5
U-251 = test system: U-251
HOP-92 = test system: HOP-92
UACC-257 = test system: UACC-257
T47D = test system: T47D
MDA-MB-231 = test system: MDA-MB-231
UO-31 = test system: UO-31
NCI-H460 = test system: NCI-H460
SK-MEL-5 = test system: SK-MEL-5
A498 = test system: A498
NCI-H522 = test system: NCI-H522
SN12C = test system: SN12C
NCI-H226 = test system: NCI-H226
SNB-75 = test system: SNB-75
HOP-62 = test system: HOP-62
SF-295 = test system: SF-295
SF-539 = test system: SF-539
RPMI-8226 = test system: RPMI-8226
OVCAR-8 = test system: OVCAR-8
NCI-H23 = test system: NCI-H23
OVCAR-3 = test system: OVCAR-3
M14 = test system: M14
MCF7 = test system: MCF7

Measured: GI50

NS(=O)(=O)c1ccc(N2C(=O)C(=O)N(c3ccccc3)C2=S)cc1
60.3 µM: HCT-15
inactive: SF-268 > 100 µM | A549 > 100 µM | Hs-578T > 100 µM | KM12 > 100 µM | COLO 205 > 100 µM | NCI/ADR-RES > 100 µM | SK-MEL-2 > 100 µM | CAKI-1 > 100 µM | SNB-19 > 100 µM | CCRF-CEM > 100 µM | K562 > 100 µM | SK-MEL-28 > 100 µM | EKVX 93.8 µM | Malme-3M > 100 µM | MDA-N > 100 µM | IGROV-1 > 100 µM | SW-620 > 100 µM | DU-145 > 100 µM | UACC-62 > 100 µM | HT-29 > 100 µM | MOLT-4 > 100 µM | OVCAR-4 30.6 µM | SR 18.9 µM | HCC 2998 > 100 µM | PC-3 > 100 µM | RXF 393 75.7 µM | HL-60 > 100 µM | TK-10 > 100 µM | 786-0 > 100 µM | ACHN > 100 µM | MDA-MB-435 > 100 µM | HCT-116 > 100 µM | LOX IMVI > 100 µM | SK-OV-3 > 100 µM | OVCAR-5 > 100 µM | U-251 > 100 µM | HOP-92 23.6 µM | UACC-257 37.8 µM | T47D 55.1 µM | MDA-MB-231 > 100 µM | UO-31 > 100 µM | NCI-H460 > 100 µM | SK-MEL-5 97.1 µM | A498 > 100 µM | NCI-H522 27 µM | SN12C > 100 µM | NCI-H226 61.1 µM | SNB-75 74.3 µM | HOP-62 > 100 µM | SF-295 > 100 µM | SF-539 > 100 µM | RPMI-8226 > 100 µM | OVCAR-8 > 100 µM | NCI-H23 > 100 µM

N=C(N)SCc1ccc(N=C=S)cc1
11.3 µM: HCT-15
inactive: SF-268 20.2 µM | A549 16.3 µM | Hs-578T 12.6 µM | KM12 14.3 µM | COLO 205 13.4 µM | NCI/ADR-RES 16.9 µM | SK-MEL-2 10.4 µM | CAKI-1 12.7 µM | SNB-19 13.8 µM | CCRF-CEM 6.93 µM | K562 11.7 µM | SK-MEL-28 14.6 µM | EKVX 15.9 µM | Malme-3M 14.3 µM | MDA-N 13.7 µM | IGROV-1 12.9 µM | SW-620 12.9 µM | DU-145 15.9 µM | UACC-62 11.4 µM | HT-29 15.1 µM | MOLT-4 > 100 µM | OVCAR-4 14.3 µM | SR 17.6 µM | HCC 2998 16.6 µM | PC-3 15.9 µM | RXF 393 3.56 µM | HL-60 5.62 µM | TK-10 14.5 µM | 786-0 13.8 µM | ACHN 13.2 µM | MDA-MB-435 13.1 µM | HCT-116 14 µM | LOX IMVI 12.8 µM | SK-OV-3 17.3 µM | OVCAR-5 14.4 µM | U-251 15.2 µM | HOP-92 11.7 µM | UACC-257 13.1 µM | T47D 13.6 µM | MDA-MB-231 7.74 µM | UO-31 12.5 µM | NCI-H460 14.9 µM | SK-MEL-5 14 µM | A498 13.9 µM | NCI-H522 10 µM | SN12C 14.5 µM | NCI-H226 15.6 µM | SNB-75 10.2 µM | HOP-62 16.6 µM | SF-295 17.1 µM | SF-539 14.1 µM | RPMI-8226 12.4 µM | OVCAR-8 15.2 µM | NCI-H23 14.2 µM

Cc1c(C)c2ccc(OCC(O)COC(C)C)c(C)c2oc1=O (centres undefined)
inactive: SF-268 > 100 µM | A549 34.7 µM | Hs-578T 31.7 µM | KM12 56.1 µM | COLO 205 > 10 µM | NCI/ADR-RES 41.5 µM | SK-MEL-2 20.1 µM | CAKI-1 41.7 µM | SNB-19 57.5 µM | OVCAR-3 > 100 µM | CCRF-CEM 27.5 µM | K562 25.4 µM | SK-MEL-28 34 µM | EKVX 45.5 µM | Malme-3M 16.2 µM | MDA-N 17.7 µM | IGROV-1 70.6 µM | M14 20.8 µM | SW-620 29.4 µM | DU-145 > 100 µM | UACC-62 38.5 µM | MCF7 24.4 µM | HT-29 31 µM | MOLT-4 > 10 µM | OVCAR-4 > 10 µM | SR 26.7 µM | HCC 2998 24.8 µM | PC-3 45.2 µM | HL-60 35 µM | TK-10 25.1 µM | 786-0 > 10 µM | ACHN 44.3 µM | HCT-116 18.5 µM | LOX IMVI 18.7 µM | SK-OV-3 > 100 µM | OVCAR-5 39.1 µM | U-251 16.2 µM | HOP-92 33.2 µM | UACC-257 19.8 µM | T47D > 100 µM | UO-31 41.8 µM | NCI-H460 16.7 µM | SK-MEL-5 16.4 µM | NCI-H522 17.2 µM | HOP-62 28.7 µM | SF-295 23.5 µM | RPMI-8226 21.4 µM | OVCAR-8 28.2 µM | NCI-H23 91.6 µM
